Reference: PubChem BioAssay AID1963975 (Molecular Pharmacology Branch, DTP, NCI, 2024)

System: 624824-186-R-J2-PDC multicell spheroids, viability
Assay: Anticancer human tumor 624824-186-R-J2-PDC patient-derived colon adenocarcinoma cell line growth inhibition [PI3K]
Conditions: for IC50: curve of first compound; for viability, T/C: stronger effect = lower value; active = viability on the fitted dose curve at most 10% of control; inactive = the rest
Procedure, shortened: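 Combination activity was assessed by viability in multicellular tumor spheroids carrying HUVEC and MSC components. Agents were tested with PI3K inhibitors from a Cmax-based top dose (or 10 microM) downward in half-log increments.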

[1] = second compound 0.0316 µM, first compound 0.0316 µM
[2] = second compound 0.0316 µM, first compound 0.1 µM
[3] = second compound 0.0316 µM, first compound 0.316 µM
[4] = second compound 0.0316 µM, first compound 1 µM
[5] = second compound 0.1 µM, first compound 0.0316 µM
[6] = second compound 0.1 µM, first compound 0.1 µM
[7] = second compound 0.1 µM, first compound 0.316 µM
[8] = second compound 0.1 µM, first compound 1 µM
[9] = second compound 0.316 µM, first compound 0.0316 µM
[10] = second compound 0.316 µM, first compound 0.1 µM
[11] = second compound 0.316 µM, first compound 0.316 µM
[12] = second compound 0.316 µM, first compound 1 µM
[13] = second compound 1 µM, first compound 0.0316 µM
[14] = second compound 1 µM, first compound 0.1 µM
[15] = second compound 1 µM, first compound 0.316 µM
[16] = second compound 1 µM, first compound 1 µM
[17] = second compound 3.16 µM, first compound 0.0316 µM
[18] = second compound 3.16 µM, first compound 0.1 µM
[19] = second compound 3.16 µM, first compound 0.316 µM
[20] = second compound 3.16 µM, first compound 1 µM
[21] = second compound 10 µM, first compound 0.0316 µM
[22] = second compound 10 µM, first compound 0.1 µM
[23] = second compound 10 µM, first compound 0.316 µM
[24] = second compound 10 µM, first compound 1 µM
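Note: spheroids exposed to agents for 7 days before viability read.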
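Throughout, for viability, T/C: 100% = DMSO vehicle treated spheroids.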

CC(C)NCC(C(=O)N1CCN(c2ncnc3c2C(C)CC3O)CC1)c1ccc(Cl)cc1 (centres undefined) + Cc1nc(NC(=O)N2CCCC2C(N)=O)sc1-c1ccnc(C(C)(C)C(F)(F)F)c1
inactive: viability, T/C [1] 88.1% | viability, T/C [2] 106% | viability, T/C [3] 72.2% | viability, T/C [4] 85% | viability, T/C (second compound 0.0316 µM, first compound 3.16 µM) 93.3% | viability, T/C (second compound 0.0316 µM, first compound 10 µM) 68.2% | viability, T/C [5] 79.3% | viability, T/C [6] 72.6% | viability, T/C [7] 85% | viability, T/C [8] 68.1% | viability, T/C (second compound 0.1 µM, first compound 3.16 µM) 76.5% | viability, T/C (second compound 0.1 µM, first compound 10 µM) 74.4% | viability, T/C [9] 78.2% | viability, T/C [10] 68.2% | viability, T/C [11] 77.5% | viability, T/C [12] 75.3% | viability, T/C (second compound 0.316 µM, first compound 3.16 µM) 79.6% | viability, T/C (second compound 0.316 µM, first compound 10 µM) 64.9% | viability, T/C [13] 64.5% | viability, T/C [14] 85.9% | viability, T/C [15] 63.4% | viability, T/C [16] 86.4% | viability, T/C (second compound 1 µM, first compound 3.16 µM) 76.5% | viability, T/C (second compound 1 µM, first compound 10 µM) 75.4% | viability, T/C [17] 78.2% | viability, T/C [18] 79.8% | viability, T/C [19] 81.3% | viability, T/C [20] 82.2% | viability, T/C (second compound 3.16 µM, first compound 3.16 µM) 68% | viability, T/C (second compound 3.16 µM, first compound 10 µM) 55.9% | viability, T/C [21] 73.5% | viability, T/C [22] 66.6% | viability, T/C [23] 58.1% | viability, T/C [24] 62.5% | viability, T/C (second compound 10 µM, first compound 3.16 µM) 63.7% | viability, T/C (second compound 10 µM, first compound 10 µM) 55.8%
> 10 µM: IC50 (second compound 0.0316 µM) | IC50 (second compound 0.1 µM) | IC50 (second compound 0.316 µM) | IC50 (second compound 1 µM) | IC50 (second compound 3.16 µM) | IC50 (second compound 10 µM)

CCN1CCN(Cc2ccc(Nc3ncc(F)c(-c4cc(F)c5nc(C)n(C(C)C)c5c4)n3)nc2)CC1 + Cc1nc(NC(=O)N2CCCC2C(N)=O)sc1-c1ccnc(C(C)(C)C(F)(F)F)c1
inactive: viability, T/C (second compound 0.0316 µM, first compound 0.00316 µM) 95.9% | viability, T/C (second compound 0.0316 µM, first compound 0.01 µM) 92.4% | viability, T/C [1] 87.3% | viability, T/C [2] 72.8% | viability, T/C [3] 75.5% | viability, T/C [4] 102% | viability, T/C (second compound 0.1 µM, first compound 0.00316 µM) 85.8% | viability, T/C (second compound 0.1 µM, first compound 0.01 µM) 81.7% | viability, T/C [5] 67.9% | viability, T/C [6] 82.8% | viability, T/C [7] 87% | viability, T/C [8] 92.8% | viability, T/C (second compound 0.316 µM, first compound 0.00316 µM) 91.4% | viability, T/C (second compound 0.316 µM, first compound 0.01 µM) 79.2% | viability, T/C [9] 63.6% | viability, T/C [10] 76.6% | viability, T/C [11] 92% | viability, T/C [12] 88.7% | viability, T/C (second compound 1 µM, first compound 0.00316 µM) 63.2% | viability, T/C (second compound 1 µM, first compound 0.01 µM) 77.3% | viability, T/C [13] 76.5% | viability, T/C [14] 80.2% | viability, T/C [15] 86% | viability, T/C [16] 95.2% | viability, T/C (second compound 3.16 µM, first compound 0.00316 µM) 72.2% | viability, T/C (second compound 3.16 µM, first compound 0.01 µM) 93% | viability, T/C [17] 78.7% | viability, T/C [18] 68.6% | viability, T/C [19] 79.4% | viability, T/C [20] 82.4% | viability, T/C (second compound 10 µM, first compound 0.00316 µM) 63.8% | viability, T/C (second compound 10 µM, first compound 0.01 µM) 66.1% | viability, T/C [21] 70.7% | viability, T/C [22] 53% | viability, T/C [23] 65.2% | viability, T/C [24] 74.9%
> 1 µM: IC50 (second compound 0.0316 µM) | IC50 (second compound 0.1 µM) | IC50 (second compound 0.316 µM) | IC50 (second compound 1 µM) | IC50 (second compound 3.16 µM) | IC50 (second compound 10 µM)
